Experimental findings from PMC6273621, “Synthesis and the Biological Activity of Phosphonylated 1,2,3-Triazolenaphthalimide Conjugates” (Molecules, 2016) are described below.

The test system of one data set is TK+ VZV strain. Briefly: microbe, parasite or virus in culture. The data set is classed as cell-based, varicella-zoster virus (VZV) strain Oka. The settings on record: for EC50: Human alphaherpesvirus 3, HEL, read-out: Antiviral Activity EC50, TK+ VZV Strain, HEL cell cultures, concentration reducing virus plaque formation by 50%.
A further data set concerns TK− VZV strain. Nature of the data set: microbe, parasite or virus in culture. The data set is classed as cell-based, varicella-zoster virus (VZV) strain 07−1. To be noted: Human alphaherpesvirus 3, HEL, read-out: Antiviral Activity EC50, TK− VZV Strain, HEL cell cultures; concentration reducing virus plaque formation by 50%.
In another data set the test system is HEL cells. Nature of the data set: Cytotoxicity, cell morphology (MCC) in HEL cells. The settings on record: minimum cytotoxic concentration causing microscopically detectable alteration of cell morphology. The data set is classed as cell-based, human. The text has this:
The cytotoxicity of the tested compounds toward the uninfected host cells was defined as the minimum cytotoxic concentration (MCC) that causes a microscopically detectable alteration of normal cell morphology.

Data set [1] concerns murine leukemia (L1210) cells. Nature of the data set: Cytostatic activity, L1210 cell proliferation. The data set is classed as cell-based. To be noted: Mus musculus, read-out: IC50 L1210. How it is done: (§1) All assays were performed in 96-well microtiter plates. To each well were added (5–7.5) × 10^4 tumor cells and a given amount of the test compound. The cells were allowed to proliferate for 48 h (murine leukemia L1210 cells) or 72 h (human lymphocytic CEM and human cervix carcinoma HeLa cells) at 37 °C in a humidified CO2-controlled atmosphere. At the end of the incubation period, the cells were counted in a Coulter counter.

The test system of data set [2] is human T-lymphocyte (CEM) cells. Nature of the data set: Cytostatic activity, CEM cell proliferation. The class given is cell-based. The settings on record: CCRF-CEM, 72 h, read-out: IC50 CEM. The procedure: as §1
Data set [3] concerns human cervix carcinoma cells (HeLa). Nature of the data set: Cytostatic activity, HeLa cell proliferation. The settings on record: 72 h, read-out: IC50 HeLa. The class given is cell-based. How it is done:
as §1

Data set [4] deals with human dermal microvascular endothelial HMEC-1 cells. Briefly: Cytostatic activity, HMEC-1 cell proliferation. The data set is classed as cell-based.

Read-outs that look alike come from different tables or passages of the source.

By EC50 is commonly meant the concentration that produces a half-maximal response. As a reminder, the IC50 is the concentration at which inhibition is half-maximal. Turning to `CN(C)CCN1C(=O)c2cccc3cc(N)cc(c23)C1=O` [Amonafide, reference compound], the EC50 in the data set on TK+ VZV strain was 5.36 µM; in the data set on TK− VZV strain it was 7.82 µM. The “Cytotoxicity, Cell Morphology (MCC)” value with HEL cells is 20 μM. Besides, the concentration for half-maximal inhibition (IC50) in data set [1] (L1210, cell proliferation, 48 h) was 1 ± 0.4 µM; in data set [2] (cell proliferation) it was 0.54 ± 0.5 µM; in data set [3] (cell proliferation), 2 ± 1.2 µM; in data set [4] (HMEC-1, cell proliferation, read-out: IC50 HMEC-1), 0.31 µM.
For orientation: melting point means the temperature of the solid-liquid transition. Compound `CCOP(=O)(CCCn1cc(CN2C(=O)c3cccc4cccc(c34)C2=O)nn1)OCC` [Compound 14c, Diethyl 3-{4-[(1,3-Dioxo-1H-benzo[de]isoquinolin-2(3H)-yl)methyl]-1H-1,2,3-triazol-1-yl}propylphosphonate] came in with a melting point of 131 to 132 °C. Further, in the data set on TK+ VZV strain, the EC50 was greater than 100 µM. For the same compound, the 50% effective concentration (EC50) in the data set with TK− VZV strain was 64.5 µM. Moreover, the “Cytotoxicity, Cell Morphology (MCC)” value in the data set on HEL cells is given as greater than 100 μM. Moreover, the IC50 in data set [1] (L1210, 48 h) is no less than 250 µM. Moreover, the concentration for half-maximal inhibition (IC50) in data set [2] was found to be 124 ± 19 µM. In addition, the IC50 in data set [3] was 172 ± 20 µM. In addition, the IC50 in data set [4] (HMEC-1, read-out: IC50 HMEC-1) is no less than 250 µM.
Consider `CCOP(=O)(CCCCn1cc(CN2C(=O)c3cccc4cccc(c34)C2=O)nn1)OCC` [Compound 14d, Diethyl 4-{4-[(1,3-Dioxo-1H-benzo[de]isoquinolin-2(3H)-yl)methyl]-1H-1,2,3-triazol-1-yl}butylphosphonate], for which the melting point lay in the range of 131 to 132 °C. For the same compound, the concentration giving a half-maximal response (EC50) in the data set on TK+ VZV strain was determined as 86.4 µM. Further, the 50% effective concentration (EC50) in the data set on TK− VZV strain was determined as 56.7 µM. Moreover, the “Cytotoxicity, Cell Morphology (MCC)” value with HEL cells was greater than 100 μM. The IC50 in data set [1] (L1210, 48 h) stood at 156 ± 40 µM. In addition, the IC50 in data set [2] came to 119 ± 3 µM. In data set [3], the IC50 was determined as 150 ± 11 µM. Moreover, in data set [4] (HMEC-1, read-out: IC50 HMEC-1), the IC50 stood at 180 ± 54 µM.
The compound `CCOP(=O)(OCC)C(O)Cn1cc(CN2C(=O)c3cccc4cccc(c34)C2=O)nn1` (stereo not drawn) [Compound 14e, Diethyl 2-{4-[(1,3-Dioxo-1H-benzo[de]isoquinolin-2(3H)-yl)methyl]-1H-1,2,3-triazol-1-yl}-1-hydroxyethylphosphonate] registered a melting point of 186 to 188 °C. Moreover, the EC50 in the data set with TK+ VZV strain turned out to be 69.9 µM. For the same compound, the concentration giving a half-maximal response (EC50) in the data set with TK− VZV strain is greater than 100 µM. The “Cytotoxicity, Cell Morphology (MCC)” value in the data set on HEL cells is reported as greater than 100 μM. In addition, the IC50 in data set [1] (L1210, 48 h) is greater than 250 µM. Also, the half-maximal inhibitory concentration (IC50) in data set [2] was greater than 250 µM. For the same compound, the IC50 in data set [3] is no less than 250 µM. The IC50 in data set [4] (HMEC-1, read-out: IC50 HMEC-1) is no less than 250 µM.
For the compound `CCOP(=O)(CCOCCn1cc(CN2C(=O)c3cccc4cccc(c34)C2=O)nn1)OCC` [Compound 14h, Diethyl 2-(2-{4-[(1,3-Dioxo-1H-benzo[de]isoquinolin-2(3H)-yl)methyl]-1H-1,2,3-triazol-1-yl}ethoxy)ethylphosphonate], the melting point is 156 to 158 °C. For the same compound, the EC50 in the data set with TK+ VZV strain is greater than 100 µM. For the same compound, in the data set with TK− VZV strain, the EC50 amounted to 74.6 µM. Also, in the data set with HEL cells, the “Cytotoxicity, Cell Morphology (MCC)” value is greater than 100 μM. Besides, the concentration for half-maximal inhibition (IC50) in data set [1] (L1210, 48 h) stood at 196 ± 32 µM. Further, in data set [2], the IC50 was 171 ± 25 µM. The IC50 in data set [3] was 154 ± 22 µM. Further, in data set [4] (HMEC-1, read-out: IC50 HMEC-1), the IC50 came out at 222 ± 39 µM.
In the case of `CCOP(=O)(CCn1cc(CN2C(=O)c3cccc4c(Br)ccc(c34)C2=O)nn1)OCC` [Compound 15b], the melting point was 132 to 134 °C. Moreover, the EC50 with TK+ VZV strain is 34.2 µM. In addition, the EC50 in the data set on TK− VZV strain is 38.1 µM. Besides, in the data set with HEL cells, the “Cytotoxicity, Cell Morphology (MCC)” value was greater than 100 μM. In addition, the IC50 in data set [1] (L1210, 48 h) came to 14 ± 1 µM. The half-inhibitory concentration (IC50) in data set [2] was 56 ± 20 µM. For the same compound, the IC50 in data set [3] was found to be 62 ± 20 µM. Also, in data set [4] (HMEC-1, read-out: IC50 HMEC-1), the IC50 was 152 ± 1 µM.
As for `CCOP(=O)(CCCCn1cc(CN2C(=O)c3cccc4c(Br)ccc(c34)C2=O)nn1)OCC` [Compound 15d, Diethyl 4-{4-[(6-Bromo-1,3-dioxo-1H-benzo[de]isoquinolin-2(3H)-yl)methyl]-1H-1,2,3-triazol-1-yl}butylphosphonate], the EC50 in the data set with TK+ VZV strain stood at 40.4 µM; in the data set on TK− VZV strain it was 37.5 µM. Also, the “Cytotoxicity, Cell Morphology (MCC)” value with HEL cells was determined as 100 μM. In addition, the half-maximal inhibitory concentration (IC50) in data set [1] (L1210, 48 h) was 17 ± 3 µM; in data set [2], 22 µM; in data set [3], 55 ± 2 µM; in data set [4] (HMEC-1, read-out: IC50 HMEC-1), 92 ± 43 µM.
In turn, `CCOP(=O)(CC(O)Cn1cc(CN2C(=O)c3cccc4c(Br)ccc(c34)C2=O)nn1)OCC` (stereo not drawn) [Compound 15f, Diethyl 3-{4-[(6-Bromo-1,3-dioxo-1H-benzo[de]isoquinolin-2(3H)-yl)methyl]-1H-1,2,3-triazol-1-yl}-2-hydroxypropylphosphonate] came in with a melting point of 152 to 153 °C. Besides, the EC50 in the data set with TK+ VZV strain came out at 86.4 µM. Besides, in the data set with TK− VZV strain, the EC50 was greater than 100 µM. Besides, in the data set on HEL cells, the “Cytotoxicity, Cell Morphology (MCC)” value is greater than 100 μM. The IC50 in data set [1] (L1210, 48 h) was 23 ± 3 µM. Besides, in data set [2], the half-maximal inhibitory concentration (IC50) came out at 60 ± 13 µM. In addition, in data set [3], the 50% inhibitory concentration (IC50) was 87 ± 21 µM. The IC50 in data set [4] (HMEC-1, read-out: IC50 HMEC-1) is 152 ± 1 µM.
Regarding `CCOP(=O)(CCOCCn1cc(CN2C(=O)c3cccc4c(Br)ccc(c34)C2=O)nn1)OCC` [Compound 15h, Diethyl 2-(2-{4-[(6-Bromo-1,3-dioxo-1H-benzo[de]isoquinolin-2(3H)-yl)methyl]-1H-1,2,3-triazol-1-yl}ethoxy)ethylphosphonate], the melting point is 92 to 93 °C. Also, the concentration giving a half-maximal response (EC50) in the data set on TK+ VZV strain turned out to be 37.1 µM. For the same compound, in the data set on TK− VZV strain, the EC50 turned out to be 70.8 µM. The “Cytotoxicity, Cell Morphology (MCC)” value in the data set on HEL cells is reported as greater than 100 μM. In addition, in data set [1] (L1210, 48 h), the 50% inhibitory concentration (IC50) is 26 ± 2 µM. Besides, the IC50 in data set [2] amounted to 29 ± 11 µM. Further, in data set [3], the 50% inhibitory concentration (IC50) turned out to be 61 ± 15 µM. Also, the IC50 in data set [4] (HMEC-1, read-out: IC50 HMEC-1) was found to be 151 µM.
For the compound `CCOP(=O)(CCn1cc(CN2C(=O)c3cccc4cc([N+](=O)[O-])cc(c34)C2=O)nn1)OCC` [Compound 16b, Diethyl 2-{4-[(5-Nitro-1,3-dioxo-1H-benzo[de]isoquinolin-2(3H)-yl)methyl]-1H-1,2,3-triazol-1-yl}ethylphosphonate], the “Potency toward the TK+ VZV strain (in words)” value in the data set on TK+ VZV strain (HEL cell cultures) was “no potency”. The concentration giving a half-maximal response (EC50) in the data set on TK+ VZV strain is greater than 100 µM; in the data set with TK− VZV strain, 27.6 µM. In addition, in the data set with HEL cells, the “Cytotoxicity, Cell Morphology (MCC)” value was 100 μM. The IC50 in data set [1] (L1210, 48 h) was greater than 250 µM; in data set [2], 176 ± 37 µM; in data set [3] it was 54 ± 21 µM; in data set [4] (HMEC-1, read-out: IC50 HMEC-1) it was 118 ± 71 µM.
As for `CCOP(=O)(CCOCCn1cc(CN2C(=O)c3cccc4cc([N+](=O)[O-])cc(c34)C2=O)nn1)OCC` [Compound 16h, Diethyl 2-(2-{4-[(5-Nitro-1,3-dioxo-1H-benzo[de]isoquinolin-2(3H)-yl)methyl]-1H-1,2,3-triazol-1-yl}ethoxy)ethylphosphonate], the values for the half-maximal effective concentration (EC50) with TK+ VZV strain and in the data set on TK− VZV strain were 40.9 µM and 64.5 µM, respectively. For the same compound, in the data set on HEL cells, the “Cytotoxicity, Cell Morphology (MCC)” value is on record as greater than 100 μM. Also, the IC50 is 64 ± 11 µM in data set [1] (L1210, 48 h); 66 µM in data set [2]; 56 ± 16 µM in data set [3]; 152 ± 1 µM in data set [4] (HMEC-1, read-out: IC50 HMEC-1).
As for `CCOP(=O)(CNC(=O)Cn1cc(CN2C(=O)c3cccc4cc([N+](=O)[O-])cc(c34)C2=O)nn1)OCC` [Compound 16i, Diethyl 2-{4-[(5-Nitro-1,3-dioxo-1H-benzo[de]isoquinolin-2(3H)-yl)methyl]-1H-1,2,3-triazol-1-yl}acetamido-methylphosphonate], the melting point lay within 217 to 219 °C. Further, the IC50 in data set [1] (L1210, 48 h) was greater than 250 µM. Besides, the IC50 in data set [2] is greater than 250 µM. Further, the concentration for half-maximal inhibition (IC50) in data set [3] was found to be 86 ± 6 µM. In data set [4] (HMEC-1, read-out: IC50 HMEC-1), the IC50 was greater than 250 µM.
